Data taken from US8324211B2, “Inhibitors of bruton's tyrosine kinase” (Roche Palo Alto LLC, priority 2008, dated 2012).

target: T1, Btk enzyme (His-tagged, full-length) (Homo sapiens, UniProt Q06187); assay: Bruton's Tyrosine Kinase (Btk) Inhibition Assay (33P filtration capture); type: biochemical; conditions: 100 μM ATP, 30 μM peptide substrate, 30 min at 30° C.
T1 construct: 5-10 nM Btk enzyme (His-tagged, full-length); His
Source text: Bruton's Tyrosine Kinase (Btk) Inhibition Assay
The assay is a capture of radioactive ^33P phosphorylated product through filtration. The interactions of Btk, biotinylated SH2 peptide substrate (Src homology), and ATP lead to phosphorylation of the peptide substrate. Biotinylated product is bound streptavidin sepharose beads. All bound, radiolabeled products are detected by scintillation counter.
Plates assayed are 96-well polypropylene (Greiner) and 96-well 1.2 μm hydrophilic PVDF filter plates (Millipore). Concentrations reported here are final assay concentrations: 10-100 μM compounds in DMSO (Burdick and Jackson), 5-10 nM Btk enzyme (His-tagged, full-length), 30 μM peptide substrate (Biotin-Aca-AAAEEIYGEI-NH2), 100 μM ATP (Sigma), 8 mM imidazole (Sigma, pH 7.2), 8 mM glycerol-2-phosphate (Sigma), 200 μM EGTA (Roche Diagnostics), 1 mM MnCl2 (Sigma), 20 mM MgCl2 (Sigma), 0.1 mg/ml BSA (Sigma), 2 mM DTT (Sigma), 1 μCi^33P ATP (Amersham), 20% streptavidin sepharose beads (Amersham), 50 mM EDTA (Gibco), 2 M NaCl (Gibco), 2 M NaCl w/1% phosphoric acid (Gibco), microscint-20 (Perkin Elmer).
IC50 determinations are calculated from 10 data points per compound utilizing data produced from a standard 96-well plate assay template. One control compound and seven unknown inhibitors were tested on each plate and each plate was run twice. Typically, compounds were diluted in half-log starting at 100 μM and ending at 3 nM.The control compound was staurosporine. Background was counted in the absence of peptide substrate. Total activity was determined in the presence of peptide substrate. The following protocol was used to determine Btk inhibition. • 1) Sample preparation: The test compounds were diluted at half-log increments in assay buffer (imidazole, glycerol-2-phosphate, EGTA, MnCl2, MgCl2, BSA). • 2) Bead preparation […]

T1 sequence (Q06187 whole entry): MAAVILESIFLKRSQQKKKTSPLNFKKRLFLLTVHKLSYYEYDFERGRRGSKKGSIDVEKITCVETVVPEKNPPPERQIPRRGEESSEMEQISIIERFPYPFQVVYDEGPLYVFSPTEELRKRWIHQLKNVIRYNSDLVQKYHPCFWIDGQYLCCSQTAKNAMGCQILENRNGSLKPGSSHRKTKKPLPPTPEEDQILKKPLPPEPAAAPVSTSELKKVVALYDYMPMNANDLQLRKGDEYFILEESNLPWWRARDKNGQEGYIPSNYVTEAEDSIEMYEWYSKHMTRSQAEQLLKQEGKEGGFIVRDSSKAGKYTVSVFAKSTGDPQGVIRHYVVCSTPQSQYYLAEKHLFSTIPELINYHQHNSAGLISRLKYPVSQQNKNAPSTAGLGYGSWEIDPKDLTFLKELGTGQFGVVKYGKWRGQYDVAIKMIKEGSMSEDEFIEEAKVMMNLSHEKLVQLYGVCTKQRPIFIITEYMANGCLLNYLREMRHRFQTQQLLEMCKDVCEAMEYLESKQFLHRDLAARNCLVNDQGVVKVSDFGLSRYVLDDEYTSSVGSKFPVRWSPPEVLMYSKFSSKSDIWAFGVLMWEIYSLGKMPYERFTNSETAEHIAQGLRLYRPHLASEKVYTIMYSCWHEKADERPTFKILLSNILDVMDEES

IC50, < 10 nM:
O=C(c1ccc(Nc2cc(-c3cccc(N4CCc5cc(C6CC6)ccc5C4=O)c3CO)nn3ccnc23)nc1)N1CCOCC1 [II-2, 6-Cyclopropyl-2-(2-hydroxymethyl-3-{8-[5-(morpholine-4-carbonyl)-pyridin-2-ylamino]-imidazo[1,2-b]pyridazin-6-yl}-phenyl)-3,4-dihydro-2H-isoquinolin-1-one]
CN(C)c1ccc2c(c1)CCN(c1cccc(-c3cc(Nc4ccc(C(=O)N5CCOCC5)cn4)c4nccn4c3)c1CO)C2=O [II-4, 6-Dimethylamino-2-(2-hydroxymethyl-3-{8-[5-(morpholine-4-carbonyl)-pyridin-2-ylamino]-imidazo[1,2-a]pyridin-6-yl}-phenyl)-3,4-dihydro-2H-isoquinolin-1-one]
CN(C)c1ccc2c(c1)CCN(c1cccc(-c3cc(Nc4ccc(C(=O)N5CCOCC5)cn4)c4nccn4n3)c1CO)C2=O [II-1, 6-Dimethylamino-2-(2-hydroxymethyl-3-{8-[5-(morpholine-4-carbonyl)-pyridin-2-ylamino]-imidazo[1,2-b]pyridazin-6-yl}-phenyl)-3,4-dihydro-2H-isoquinolin-1-one]
